Reference: the NIST ThermoML archive (doi:10.1021/je300134c)

Assay: xn = mol fraction of the nth substance listed
Details: 101 kPa, Liquid; for speed of sound: Sing-around technique in a fixed-path interferometer; for mass density: Vibrating tube method

CCCC[n+]1ccn(CC)c1.O=S(=O)([O-])C(F)(F)F + O
Details | mass density [kg/m3] | speed of sound [m/s]
278.15 K, x1 = 0.04992 | 1120.13 | 1524
278.15 K, x1 = 0.1001 | 1171.15 | 1521.3
278.15 K, x1 = 0.1498 | 1199.88 | 1514.7
278.15 K, x1 = 0.1998 | 1218.01 | 1505.6
278.15 K, x1 = 0.3013 | 1239.57 | 1484.6
278.15 K, x1 = 0.4012 | 1251.73 | 1467.7
278.15 K, x1 = 0.496 | 1259.25 | 1455.4
278.15 K, x1 = 0.6017 | 1265.19 | 1444.9
278.15 K, x1 = 0.7007 | 1269.28 | 1436.2
278.15 K, x1 = 0.8551 | 1274.04 | 1428
278.15 K, x1 = 0.9006 | 1275.29 | 1424.8
278.15 K, x1 = 1 | 1278.02 | 1420.6
288.15 K, x1 = 0.04992 | 1114.86 | 1527.1
288.15 K, x1 = 0.1001 | 1164.38 | 1513.5
288.15 K, x1 = 0.1498 | 1192.37 | 1500.2
288.15 K, x1 = 0.1998 | 1210.13 | 1487.1
288.15 K, x1 = 0.3013 | 1231.45 | 1462.7
288.15 K, x1 = 0.4012 | 1243.63 | 1444.7
288.15 K, x1 = 0.496 | 1251.19 | 1432
288.15 K, x1 = 0.6017 | 1257.22 | 1421
288.15 K, x1 = 0.7007 | 1261.36 | 1412.4
288.15 K, x1 = 0.8551 | 1266.2 | 1403.7
288.15 K, x1 = 0.9006 | 1267.39 | 1400.7
288.15 K, x1 = 1 | 1269.97 | 1396.3
298.15 K, x1 = 0.04992 | 1109.08 | 1526.5
298.15 K, x1 = 0.1001 | 1157.27 | 1503
298.15 K, x1 = 0.1498 | 1184.63 | 1484.1
298.15 K, x1 = 0.1998 | 1202.11 | 1467.7
298.15 K, x1 = 0.3013 | 1223.27 | 1440.8
298.15 K, x1 = 0.4012 | 1235.48 | 1422
298.15 K, x1 = 0.496 | 1243.13 | 1409
298.15 K, x1 = 0.6017 | 1249.23 | 1397.9
298.15 K, x1 = 0.7007 | 1253.44 | 1389.3
298.15 K, x1 = 0.8551 | 1258.37 | 1380.5
298.15 K, x1 = 0.9006 | 1259.57 | 1377.5
298.15 K, x1 = 1 | 1262.21 | 1373.1
308.15 K, x1 = 0.04992 | 1102.81 | 1522.5
308.15 K, x1 = 0.1001 | 1149.85 | 1490.2
308.15 K, x1 = 0.1498 | 1176.7 | 1466.4
308.15 K, x1 = 0.1998 | 1193.95 | 1447.6
308.15 K, x1 = 0.3013 | 1215.04 | 1418.7
308.15 K, x1 = 0.4012 | 1227.32 | 1399.3
308.15 K, x1 = 0.496 | 1235.04 | 1386.3
308.15 K, x1 = 0.6017 | 1241.24 | 1375.1
308.15 K, x1 = 0.7007 | 1245.51 | 1366.7
308.15 K, x1 = 0.8551 | 1250.54 | 1357.8
308.15 K, x1 = 0.9006 | 1251.76 | 1355
308.15 K, x1 = 1 | 1254.44 | 1350.6
318.15 K, x1 = 0.04992 | 1096.1 | 1515.2
318.15 K, x1 = 0.1001 | 1142.14 | 1475.1
318.15 K, x1 = 0.1498 | 1168.57 | 1447.5
318.15 K, x1 = 0.1998 | 1185.67 | 1426.7
318.15 K, x1 = 0.3013 | 1206.74 | 1396.3
318.15 K, x1 = 0.4012 | 1219.13 | 1376.7
318.15 K, x1 = 0.496 | 1226.96 | 1363.7
318.15 K, x1 = 0.6017 | 1233.26 | 1352.5
318.15 K, x1 = 0.7007 | 1237.61 | 1344.3
318.15 K, x1 = 0.8551 | 1242.74 | 1335.7
318.15 K, x1 = 0.9006 | 1243.97 | 1333
318.15 K, x1 = 1 | 1246.71 | 1328.6
328.15 K, x1 = 0.04992 | 1088.96 | 1504.9
328.15 K, x1 = 0.1001 | 1134.15 | 1458.2
328.15 K, x1 = 0.1498 | 1160.26 | 1427.4
328.15 K, x1 = 0.1998 | 1177.26 | 1405
328.15 K, x1 = 0.3013 | 1198.39 | 1373.8
328.15 K, x1 = 0.4012 | 1210.91 | 1354.1
328.15 K, x1 = 0.496 | 1218.87 | 1341.2
328.15 K, x1 = 0.6017 | 1225.3 | 1330.3
328.15 K, x1 = 0.7007 | 1229.73 | 1322.3
328.15 K, x1 = 0.8551 | 1234.98 | 1314
328.15 K, x1 = 0.9006 | 1236.23 | 1311.3
328.15 K, x1 = 1 | 1239.01 | 1307.1
338.15 K, x1 = 0.04992 | 1081.43 | 1492
338.15 K, x1 = 0.1001 | 1125.92 | 1439.7
338.15 K, x1 = 0.1498 | 1151.76 | 1406.4
338.15 K, x1 = 0.1998 | 1168.74 | 1382.8
338.15 K, x1 = 0.3013 | 1189.99 | 1351.2
338.15 K, x1 = 0.4012 | 1202.68 | 1331.6
338.15 K, x1 = 0.496 | 1210.79 | 1319
338.15 K, x1 = 0.6017 | 1217.37 | 1308.4
338.15 K, x1 = 0.7007 | 1221.89 | 1300.7
338.15 K, x1 = 0.8551 | 1227.27 | 1292.7
338.15 K, x1 = 0.9006 | 1228.53 | 1290.2
338.15 K, x1 = 1 | 1231.35 | 1286.1
